Assay results published in ChEMBL document CHEMBL3045702, “Cytotoxic lipid esters from Peucedanum ledebourielloides” (Med Chem Res, 2010).
Converted amounts (≈) assume the structure as drawn.

Experiments:
Format in all cases: functional, cell-based
SGC-7901 = test: Cytotoxicity against Homo sapiens (human) SGC7901 cells by MTT assay
HT-29 = test: Cytotoxicity against Homo sapiens (human) HT-29 cells by MTT assay
HL-60 = test: Cytotoxicity against Homo sapiens (human) HL60 cells by MTT assay

Row | SMILES | IC50 (SGC-7901) [µg/mL] | IC50 (HT-29) [µg/mL] | IC50 (HL-60) [µg/mL]
1 | CCCCCCCCCCCCCCCC(=O)OCC(CO[C@@H]1O[C@H](CO)[C@@H](O)[C@H](O)[C@H]1O)OC(=O)CCCCCCCCCCCCCCC (some centres undefined) | 4.9 (≈ 6.7 µM) | 0.21 (≈ 0.287 µM) | 27.7 (≈ 37.9 µM)
2 | CCCCCCCCCCCCCCCC(=O)OCCCCCCOC(=O)CCCCCCCCCCCCCCC | 1.6 (≈ 2.69 µM) | 34.2 (≈ 57.5 µM) | 0.49 (≈ 0.824 µM)
3 | O=c1[nH]cc(F)c(=O)[nH]1 [FLUOROURACIL] | 0.58 (≈ 4.46 µM) | 10.3 (≈ 78.9 µM) | 25.4 (≈ 195 µM)
